Results as given in PubChem BioAssay (NCI).
Values joined by “and” are separate entries in the source; they are usually repeats but may differ in a detail not shown here. Equal entries are not always repeated.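 Growth conditions: 96-well plates. Treatment: test compound, 48 hours, 5 concentrations. Analysis: linear interpolation between bracketing concentrations; unreached endpoints set to highest concentration. GI50: concentration for 50% inhibition of growth. TGI denotes the concentration required for complete inhibition of growth.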

Tests used:
Assay in all cases: NCI tumour cell line growth inhibition, 48 h
SNB-19 CNS = test system: SNB-19 CNS
SK-MEL-2 melanoma = test system: SK-MEL-2 melanoma
SF-295 CNS = test system: SF-295 CNS
CAKI-1 renal = test system: CAKI-1 renal
IGROV1 ovarian = test system: IGROV1 ovarian
HOP-92 NSCLC = test system: HOP-92 NSCLC
MALME-3M melanoma = test system: MALME-3M melanoma
NCI-H226 lung = test system: NCI-H226 lung
MDA-MB-435 = test system: MDA-MB-435
MCF7 breast = test system: MCF7 breast

Compound	TGI (SNB-19 CNS)	TGI (SK-MEL-2 melanoma)	TGI (SF-295 CNS)	TGI (CAKI-1 renal)	TGI (IGROV1 ovarian)	TGI (HOP-92 NSCLC)	TGI (MALME-3M melanoma)	TGI (NCI-H226 lung)	GI50 (SNB-19 CNS)	GI50 (SK-MEL-2 melanoma)	GI50 (CAKI-1 renal)	GI50 (IGROV1 ovarian)	GI50 (MALME-3M melanoma)	GI50 (MDA-MB-435)	TGI (MDA-MB-435)	GI50 (SF-295 CNS)	GI50 (MCF7 breast)	TGI (MCF7 breast)	GI50 (NCI-H226 lung)	GI50 (HOP-92 NSCLC)
O=C1c2c(n(Cc3ccccc3)c(=O)n2Cc2ccccc2)C(=O)N1Cc1ccccc1	> 100 µM	> 100 µM	> 100 µM	> 100 µM	> 100 µM	> 100 µM	> 100 µM	> 100 µM												
Cc1cc(NS(=O)(=O)c2ccc(NC(=O)c3cccc4c(Nc5ccc(S(=O)(=O)N=C(N)N)cc5)c5ccccc5nc34)cc2)no1	> 100 µM		> 100 µM	> 100 µM	> 100 µM	> 100 µM	> 100 µM	> 100 µM												
O=C(OCC1CO1)c1cccs1 (stereo unspecified)	> 100 µM	> 100 µM	> 100 µM	> 100 µM	> 100 µM	> 100 µM	> 100 µM													
COc1cc2c(cc1O)CC13CCC(=O)N1CCc1cc(OC)c(O)c-2c13 (stereo unspecified)	> 68.1 µM		> 68.1 µM	> 68.1 µM	> 68.1 µM	> 68.1 µM	> 68.1 µM	> 68.1 µM												
CCOC(=O)C(=Cc1ccc(C(=O)OC)cc1)C(=O)OCC	6.47 µM	3.37 µM	19.2 µM	3.35 µM	7.73 µM	4.02 µM	3.52 µM	4.45 µM												
CC(=O)OCC1OC(OC2CC3C(C)(C)C(O)CC[C@]3(C)C3CCC45CC4(CC[C@H]5C(C)CC(O)C4OC4(C)C)[C@]23C)C(O)C(O)C1O (stereo partly specified)	15 µM and 16.9 µM	12.1 µM and 8.67 µM	15.1 µM and 19.5 µM	17.1 µM and 34.4 µM	7.61 µM and 15.6 µM	14.6 µM	16.5 µM and 20.8 µM	16.1 µM	5.14 µM	2.46 µM	19.6 µM	5.91 µM	4.52 µM							
O=C(O)c1cc2cc(OCc3ccccc3)c(OCc3ccccc3)cc2[nH]1	> 100 µM	44.7 µM	40.1 µM	51.3 µM	54.2 µM		72.6 µM	35.7 µM	32.1 µM	21.4 µM	20.7 µM	24.9 µM	25.9 µM	19.2 µM	47.9 µM	17.6 µM	21.8 µM	55.1 µM	17.1 µM	
S=C1Nc2ccc(Cl)cc2C2(c3ccccc3)N3CCN=C3NN12 (stereo unspecified)	> 100 µM		> 100 µM	> 100 µM	40.9 µM	> 100 µM	78.4 µM	> 100 µM	36.9 µM		48.8 µM	17.4 µM	23.5 µM	43.2 µM	> 100 µM	28.6 µM	27.4 µM	> 100 µM	33.9 µM	32.3 µM
CCN(c1ccc(Br)cc1)c1c(Br)c(=O)nc2ccccn12	> 100 µM	> 100 µM		> 100 µM	> 100 µM	> 100 µM	> 100 µM	> 100 µM												
C=C1C(=O)O[C@H]2[C@H]1CC/C(COC(=O)NCCc1c[nH]c3ccc(OC)cc13)=C\CC[C@@]1(C)O[C@@H]21	21.9 µM	4.18 µM	22.2 µM	3.32 µM	4.7 µM	2.87 µM	3.9 µM	3.61 µM	10 µM	1.84 µM	1.49 µM	2.08 µM	1.91 µM	1.8 µM	4.06 µM	10.3 µM			1.88 µM	1.19 µM
CN1CC(C(=O)C2C(=O)c3ccccc3C2=O)C(=O)C(=O)C(C(=O)C2C(=O)c3ccccc3C2=O)C1 (stereo unspecified)	> 100 µM	> 100 µM	> 100 µM	> 100 µM	> 100 µM	> 100 µM	> 100 µM													
c1ccc2c(c1)[nH]c1cnc3c4cccnc4[nH]c3c12	37.3 µM		49.8 µM	33.7 µM	40.1 µM	60.7 µM	49 µM	64 µM												
Cc1c(C)[n+](=O)c(C)c(C)n1[O-]	> 100 µM		> 100 µM	> 100 µM	> 100 µM	> 100 µM	> 100 µM	> 100 µM	> 100 µM		> 100 µM	> 100 µM	> 100 µM	> 100 µM	> 100 µM	> 100 µM	> 100 µM	> 100 µM	> 100 µM	2.91 µM
COc1ccc(C(=O)c2cc3c(OC)c(OC)c(OC)cc3[nH]2)cc1	> 100 µM		> 100 µM		> 100 µM	> 100 µM	> 100 µM	> 100 µM	18.6 µM			9.68 µM	5.8 µM			6.72 µM	1.32 µM	> 100 µM	> 100 µM	9.24 µM
CO[C@@H]1CC(=O)C2(CC(=O)O[C@@H]2/C=C(\C)CCC=C(C)C)C[C@@H]1O (stereo partly specified)	4.11 µM	4.88 µM	> 11.7 µM	2.74 µM	4.03 µM	2.97 µM		2.05 µM	1.23 µM	1.39 µM	0.87 µM	1.09 µM		0.803 µM	3.59 µM	1.43 µM	0.199 µM	1.17 µM	0.755 µM	0.84 µM
Cc1c2c[n+](C(C)C)ccc2c(C)c2c1[nH]c1ccccc12	14.7 µM	9.81 µM	20 µM	> 100 µM		6.95 µM	6.9 µM	41.5 µM	0.416 µM	2.89 µM	> 100 µM		1.48 µM	3.2 µM	13.2 µM	1.32 µM	1.85 µM	14.8 µM	4.32 µM	1.86 µM
NC(=O)C(c1ccccc1)N1CCOCC1 (stereo unspecified)		> 100 µM	> 100 µM	> 100 µM	> 100 µM	> 100 µM	> 100 µM	> 100 µM												
O=C(C(=O)N1CC2C=CC1CC2)c1c[nH]c2ccccc12 (stereo unspecified)	> 100 µM	> 100 µM	> 100 µM	> 100 µM	> 100 µM	> 100 µM	> 100 µM	> 100 µM												
Fc1ccc(C2SCc3nc4ccccc4n32)cc1 (stereo unspecified)	9.64 µM	> 100 µM	> 100 µM	> 100 µM	> 100 µM	62 µM	73.1 µM	92.4 µM												
